According to patent publication US20260373156A1, “CANCER TREATMENTS USING MTA-COOPERATIVE PRMT5 INHIBITORS” (AMGEN INC., priority 2022, published 2026):
Where “and” joins values, the source holds several entries; their conditions need not be identical. Identical values can stand only once. Like-named read-outs stand apart in the source and are kept apart here.

Columns and labels:
[1] = tested on: MiaPaCa2 PDAC xenografts; design: species or system Female NOD/SCID mice; details: mouse, in vivo
Procedure: FIG. 6A: Mice were implanted with LU99 (NSCLC CDX) tumors, FIG. 6B: LU5268 (NSCLC PDX) tumors. FIG. 6C: MiaPaCa2 (PDAC CDX) tumors. Vehicle, Compound G, and sotorasib were dosed as indicated. Data represent mean±SD, n=10 for each group.
10 Female NOD/SCID mice were implanted with LU99 NSCLC, LU5268 NSCLC or MisPaCa2 PDAC tumor xenografts. Mean tumor volumes for each grouping were between 100-200 mm^3. Mice were allocated to the four different study groups by tumor volume and dosing was initiated with Vehicle, Compound G (100 mg/kg), sotorasib (100 mg/kg) orally once daily or a combination of Compound G (100 mg/kg) with sotorasib (100 mg/kg). Plotted data represents the TGI (tumor growth inhibition), n=10 for each group.

[2] = tested on: H1650 cells; type: cell-based; details: 8640 min, 0.44 µM
Procedure: (§1) A MTAP-null NSCLC cancer cell line (H1650) was treated with the combination of Compound G and osimertinib for 6 days. Compound G was performed at a 1.9-fold dilution series and the combination partner was performed at 1.2 to 1.7 fold dilution series to create an 8×10 dose matrix including DMSO-only controls. Cell viability was measured by the CellTiter-Glo Luminescence assay. Raw luminescent values were converted to fraction affected (Fa) with the following equation: […]
(§2) Synergy analysis was performed using the CalcuSyn software to determine CI scores based on the drug concentrations used and corresponding Fa values.

[3] = tested on: H1650 cells; type: cell-based
Procedure: as §1, with “erlotinib” for “osimertinib”
as §2

[4] = tested on: LU99 NSCLC xenografts; details: mouse, in vivo
[5] = tested on: LU99 NSCLC xenografts; details: mouse, in vivo; remark: listed apart in the source
[6] = tested on: LU5268 NSCLC xenografts; details: mouse, in vivo
[7] = tested on: PSN1 cells; experiment: CellTiter-Glo viability and CalcuSyn synergy, PRMT5 inhibitor + KIF18A, 6 days; details: psn1 cells, 8640 min, 0.0767 µM
[8] = tested on: MIAPACA2T2 cells; experiment: as above
[9] = tested on: HCC1395 cells; experiment: CellTiter-Glo viability and CalcuSyn synergy, PRMT5 inhibitor + olaparib, 6 days; details: hcc1395 cells, 8640 min, 0.7673 µM
[10] = tested on: MIAPACA2T2 cells; experiment: CellTiter-Glo viability and CalcuSyn synergy, PRMT5 inhibitor + sotorasib, 6 days; details: miapaca2t2 cells, 8640 min, 0.4374 µM
[11] = tested on: LU99 cells; experiment: as above
[12] = tested on: A549 cells; experiment: CellTiter-Glo viability and CalcuSyn synergy, PRMT5 inhibitor + trametinib, 6 days
[13] = tested on: MIAPACA2T2 cells; experiment: as above
[14] = tested on: H292 cells; experiment: CellTiter-Glo viability and CalcuSyn synergy, PRMT5 inhibitor + palbociclib, 6 days; details: h292 cells, 8640 min, 0.1212 µM
[15] = tested on: A549 cells; experiment: as above; details: a549 cells, 8640 min, 0.437382 µM
[16] = tested on: A549 cells; experiment: CellTiter-Glo viability and CalcuSyn synergy, PRMT5 inhibitor + KRAS G12X inhibitor, 6 days; details: a549 cells, 8640 min, 0.4374 µM

Compound: Nc1nc2cnc(C(=O)N3CCOC[C@@H]3c3ccc(C(F)(F)F)cc3)cc2c2c1COC2 [Compound G]
- tumor growth inhibition [1]: significantly inhibits tumor growth
- Combination Fa [2]: 0.74 and 0.73 and 0.69 and 0.67 and 0.66 and 0.88 and 0.76
- Computed CI value [3]: 0.40 and 0.29 and 0.34 and 0.35 and 0.52 and 0.48
- Combination Fa ([3]; h1650 cells, 8640 min, 0.23 µM): 0.73 and 0.67 and 0.64 and 0.59 and 0.79 and 0.75
- anti-tumor activity [4]: significant anti-tumor activity versus either single agent alone
- tumor growth inhibition [5]: significantly inhibits tumor growth
- tumor growth inhibition [6]: significantly inhibits tumor growth
- Combination Fa [7]: 0.858 and 0.868 and 0.837 and 0.811 and 0.781 and 0.923 and 0.86
- Computed CI value [8]: 0.561 and 0.6 and 0.594 and 0.774 and 0.68 and 1.044 and 0.802
- Combination Fa ([8]; miapaca2t2 cells, 8640 min, 0.437381 µM): 0.7856 and 0.6938 and 0.6123 and 0.4815 and 0.4538 and 0.85 and 0.8122
- Combination Fa [9]: 0.6464 and 0.5971 and 0.5852 and 0.5488 and 0.55 and 0.7334 and 0.6661
- Combination Fa [10]: 0.818 and 0.785 and 0.712 and 0.633 and 0.519 and 0.829 and 0.84
- Computed CI value [11]: 0.276 and 0.234 and 0.289 and 0.249 and 0.281 and 0.424 and 0.294
- Combination Fa ([11]; lu99 cells, 8640 min, 0.1458 µM): 0.817 and 0.821 and 0.794 and 0.804 and 0.787 and 0.825
- Computed CI value [12]: 0.276 and 0.365 and 0.349 and 0.48 and 0.512 and 0.43 and 0.384
- Combination Fa ([12]; a549 cells, 8640 min, 0.4374 µM): 0.8494 and 0.7817 and 0.7499 and 0.6788 and 0.6495 and 0.894 and 0.8631
- Computed CI value [13]: 0.579 and 0.774 and 0.806 and 0.84 and 0.868 and 0.784 and 0.557
- Combination Fa ([13]; miapaca2t2 cells, 8640 min, 0.83102 µM): 0.792 and 0.69 and 0.63 and 0.583 and 0.551 and 0.868 and 0.85
- Combination Fa [14]: 0.8154 and 0.7885 and 0.7925 and 0.7748 and 0.7116 and 0.8564 and 0.824
- Combination Fa [15]: 0.717 and 0.713 and 0.732 and 0.683 and 0.682 and 0.86 and 0.735
- Combination Fa [16]: 0.8549 and 0.7807 and 0.755 and 0.7181 and 0.6897 and 0.833 and 0.8551
